51 compounds from patent US20200377505A1, “BENZIMIDAZOLES AND AZA-BENZIMIDAZOLES, AND METHODS OF USE THEREOF” (Goldfinch Bio., Inc., priority 2017, published 2020) can be followed below.

One assay addresses T1, human TRPC6 (Homo sapiens, UniProt Q9Y210).
T1 construct: expressed in transfected cells; host or cells: HEK 293
T1 sequence (Q9Y210 1-931): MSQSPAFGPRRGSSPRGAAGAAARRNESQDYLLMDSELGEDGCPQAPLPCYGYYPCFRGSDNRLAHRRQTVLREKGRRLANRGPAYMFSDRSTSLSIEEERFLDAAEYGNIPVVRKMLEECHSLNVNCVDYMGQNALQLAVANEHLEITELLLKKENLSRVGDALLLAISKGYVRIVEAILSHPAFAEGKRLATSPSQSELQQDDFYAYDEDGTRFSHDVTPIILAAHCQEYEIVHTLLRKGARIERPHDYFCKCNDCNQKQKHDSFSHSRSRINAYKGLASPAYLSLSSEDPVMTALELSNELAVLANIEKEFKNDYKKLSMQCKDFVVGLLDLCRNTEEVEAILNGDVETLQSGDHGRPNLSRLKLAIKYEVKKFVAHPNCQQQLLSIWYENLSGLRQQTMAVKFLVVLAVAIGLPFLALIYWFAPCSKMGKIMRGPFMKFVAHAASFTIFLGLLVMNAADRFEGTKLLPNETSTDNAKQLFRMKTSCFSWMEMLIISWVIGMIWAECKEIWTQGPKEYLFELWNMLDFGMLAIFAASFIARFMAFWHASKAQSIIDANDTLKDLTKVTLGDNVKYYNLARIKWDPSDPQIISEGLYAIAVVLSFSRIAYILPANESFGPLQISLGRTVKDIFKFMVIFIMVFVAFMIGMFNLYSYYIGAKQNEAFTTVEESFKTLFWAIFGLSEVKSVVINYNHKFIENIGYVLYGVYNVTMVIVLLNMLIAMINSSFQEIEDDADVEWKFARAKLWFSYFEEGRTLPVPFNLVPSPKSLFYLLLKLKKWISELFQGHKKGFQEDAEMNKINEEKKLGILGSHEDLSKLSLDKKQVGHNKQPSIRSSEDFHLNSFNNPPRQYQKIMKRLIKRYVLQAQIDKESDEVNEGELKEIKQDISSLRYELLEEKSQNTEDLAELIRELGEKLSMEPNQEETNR
The assay can be described thus: TRPC6 fluorescence-based assay (Ca2+ flux assay in FLIPR format), cells overexpressing TRPC6. To be noted: 5 μM of test compound, following Carbachol stimulation. Type of assay: cell-based.

Another assay concerns the target T2, human TRPC5 (Homo sapiens, UniProt Q9UL62).
T2 construct: expressed in transfected cells; host or cells: HEK 293
T2 sequence (Q9UL62 1-973): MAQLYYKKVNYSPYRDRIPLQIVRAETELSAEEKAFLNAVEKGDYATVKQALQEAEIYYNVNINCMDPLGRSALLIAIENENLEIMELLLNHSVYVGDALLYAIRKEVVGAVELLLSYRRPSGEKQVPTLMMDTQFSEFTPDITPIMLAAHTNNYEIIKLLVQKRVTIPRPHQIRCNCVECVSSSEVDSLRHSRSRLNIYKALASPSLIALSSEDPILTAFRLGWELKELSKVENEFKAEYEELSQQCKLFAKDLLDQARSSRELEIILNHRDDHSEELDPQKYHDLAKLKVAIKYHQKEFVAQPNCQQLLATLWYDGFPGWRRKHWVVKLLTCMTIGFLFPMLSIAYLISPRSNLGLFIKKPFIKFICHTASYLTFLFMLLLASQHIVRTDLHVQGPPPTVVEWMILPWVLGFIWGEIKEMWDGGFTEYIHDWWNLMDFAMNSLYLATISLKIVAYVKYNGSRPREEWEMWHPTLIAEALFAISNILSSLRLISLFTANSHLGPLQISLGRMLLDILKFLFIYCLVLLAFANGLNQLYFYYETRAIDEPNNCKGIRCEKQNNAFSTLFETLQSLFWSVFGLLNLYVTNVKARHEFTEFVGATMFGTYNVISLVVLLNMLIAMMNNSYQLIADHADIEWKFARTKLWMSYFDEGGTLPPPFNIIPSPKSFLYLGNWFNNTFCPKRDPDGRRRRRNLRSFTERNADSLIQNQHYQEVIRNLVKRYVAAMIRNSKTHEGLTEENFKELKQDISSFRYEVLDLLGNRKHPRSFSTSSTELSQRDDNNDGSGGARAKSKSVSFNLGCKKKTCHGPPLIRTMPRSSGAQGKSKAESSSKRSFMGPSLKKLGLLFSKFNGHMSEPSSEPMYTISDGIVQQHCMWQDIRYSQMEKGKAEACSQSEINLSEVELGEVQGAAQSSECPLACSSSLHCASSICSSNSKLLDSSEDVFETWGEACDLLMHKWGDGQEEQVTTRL
The assay can be described thus: TRPC5 fluorescence-based assay (Ca2+ flux assay in FLIPR format), cells overexpressing TRPC5. The class given is cell-based. The conditions noted are these: 5 μM of test compound, following Carbachol stimulation.

In the case of `CC(C)(C)NC(=O)Cn1c(NCc2ccccc2)nc2ccccc21`, the inhibition at 5 µM at human TRPC6 stood at 3.97%; against human TRPC5 it was 51%.

Regarding `Cc1cc(NC(=O)Cn2c(NCc3ccccc3)nc3ccccc32)no1`, the inhibition at 5 µM on human TRPC6 stood at 22.8%; against human TRPC5 it was 48%.

Turning to `CCCCn1c(NCc2ccc(N(CC)CC)cc2)nc2ccccc21`, the values for the inhibition at 5 µM on human TRPC6 and at human TRPC5 were 30.3% and 28.7%, respectively.

For `CC(C)CCn1c(-c2ccc(N)cc2)nc2ccccc21`, the inhibition at 5 µM was 27.2% against human TRPC6 and 61.1% against human TRPC5.

`CCOc1ccc(NCc2nc3ccccc3n2CCOc2ccccc2C)cc1`: the inhibition at 5 µM against human TRPC6 is 66.1%; on human TRPC5, 37.5%.

In the case of `Brc1cccc(CNc2nc3ccccc3n2CCN2CCOCC2)c1`, the inhibition at 5 µM at human TRPC6 turned out to be 18.5%; at human TRPC5 it was 45.8%.

On to `C#CCn1c(Cc2ccc(OC)c(OC)c2)nc2ccccc21`, for which the inhibition at 5 µM at human TRPC6 is 91.5%; against human TRPC5, 66%.

Turning to `CCCn1c(NCc2c[nH]c3ccccc23)nc2ccccc21`, the inhibition at 5 µM at human TRPC6 is 54.7%; against human TRPC5 it was 70.6%.

For the compound `CCCn1c(NCc2ccco2)nc2ccccc21`, the inhibition at 5 µM on human TRPC6 was 14.9%; against human TRPC5 it was 40.7%.

Regarding `Cn1c(NCc2cccc3ccccc23)nc2ccccc21`, the figures for the inhibition at 5 µM on human TRPC6 and at human TRPC5 were 27.5% and 45.5%, respectively.

As for `CCC(CC)c1nc2ccccc2n1Cc1ccccc1`, the figures for the inhibition at 5 µM against human TRPC6 and against human TRPC5 were 35.3% and 34.9%, respectively.

For the compound `CCSc1nc2ccccc2n1Cc1cccc([N+](=O)[O-])c1`, the results for the inhibition at 5 µM against human TRPC6 and against human TRPC5 were 50% and 32.2%, respectively.

Take `COc1ccc(NCc2nc3ccccc3n2CCOc2ccccc2C)cc1`: the inhibition at 5 µM at human TRPC6 turned out to be 58.5%; at human TRPC5, 44.9%.

Regarding `Nc1ccc(-c2nc3ccccc3n2CCCOc2ccccc2)cc1`, the values for the inhibition at 5 µM at human TRPC6 and at human TRPC5 were 27.3% and 38.6%, respectively.

`Cc1nc2ccccc2n1CCNC(=O)c1ccccc1SCc1ccsc1`: the results for the inhibition at 5 µM against human TRPC6 and on human TRPC5 were 80.8% and 77.7%, respectively.

As for `CCOc1ccccc1CNc1nc2ccccc2n1C`, the figures for the inhibition at 5 µM at human TRPC6 and against human TRPC5 were 19.3% and 43.9%, respectively.

Turning to `CCCCCn1c(NCc2ccc(N(C)C)cc2)nc2ccccc21`, the inhibition at 5 µM was 81.9% against human TRPC6 and 62.7% against human TRPC5.

For the compound `CCCn1c(COc2ccccc2)nc2ccccc21`, the inhibition at 5 µM came to 22.8% against human TRPC6 and 30.2% on human TRPC5.

In the case of `CCCn1c(NCc2ccccc2Cl)nc2ccccc21`, the inhibition at 5 µM was found to be 29.8% against human TRPC6 and 46% against human TRPC5.

`Nc1nc2ccccc2n1Cc1ccc(Cl)c(Cl)c1`: the inhibition at 5 µM against human TRPC6 is 84.3%; on human TRPC5, 52.4%.

Regarding `CCCCn1c(NCc2cccs2)nc2ccccc21` [drawing 82], the “Inhibition of TRPC6 (A)” value at human TRPC6 (5 µM) is reported as 72.31%. The “Inhibition of TRPC5 (A)” value at human TRPC5 (5 µM) was 65.84%.

`CCN(CC)CCn1c(NCc2ccccc2OC)nc2ccccc21`: the inhibition at 5 µM on human TRPC6 worked out at 21.9%; against human TRPC5, 63.4%.

With `Brc1cccc(CNc2nc3ccccc3n2CCN2CCCCC2)c1`, the inhibition at 5 µM at human TRPC6 is 51%; at human TRPC5, 55%.

As for `COc1ccccc1CNc1nc2ccccc2n1C(C)C`, the inhibition at 5 µM at human TRPC6 was 53.9%; at human TRPC5 it was 57.9%.

Take `Clc1ccc(Cn2c(NCc3cccs3)nc3ccccc32)cc1`: the values for the inhibition at 5 µM at human TRPC6 and against human TRPC5 were 37.5% and 72%, respectively.

As to `CCN(CC)CCn1c(NCc2cccc(Br)c2)nc2ccccc21`, the figures for the inhibition at 5 µM at human TRPC6 and at human TRPC5 were 69.8% and 62.9%, respectively.

For `Cn1c(NCc2c[nH]c3ccccc23)nc2ccccc21`, the inhibition at 5 µM against human TRPC6 was 27.7%; at human TRPC5 it was 66.8%.

`COc1ccc(OCc2nc3ccccc3n2CCc2ccccc2)cc1`: the values for the inhibition at 5 µM against human TRPC6 and on human TRPC5 were 52% and 38.3%, respectively.

Take `COc1ccc(/C=N/c2nc3ccccc3n2Cc2ccc(C)cc2)cc1`: the inhibition at 5 µM against human TRPC6 amounted to 41.5%; against human TRPC5 it was 53.4%.

`Clc1ccc(Cn2cnc3ccccc32)c(Cl)c1`: the inhibition at 5 µM against human TRPC6 came to 85.5%; at human TRPC5, 63.5%.

Consider `CCCn1c(NCc2nc3ccccc3n2C)nc2ccccc21`, for which the inhibition at 5 µM was -6.21% against human TRPC6 and 42.8% on human TRPC5.

`CCCCn1c(NCc2nc3ccccc3n2C)nc2ccccc21`: the results for the inhibition at 5 µM against human TRPC6 and at human TRPC5 were 30.4% and 59.5%, respectively.

As for `CC(C)c1ccc(CNc2nc3ccccc3n2C)cc1`, the inhibition at 5 µM is 80.6% against human TRPC6 and 50% on human TRPC5.

Take `CC(NCc1nc2ccccc2n1C)C12CC3CC(CC(C3)C1)C2` (stereo not drawn): the inhibition at 5 µM against human TRPC6 stood at 69.7%; against human TRPC5, 55.2%.

In the case of `COc1ccccc1Cn1c(C)nc2ccccc21`, the results for the inhibition at 5 µM against human TRPC6 and on human TRPC5 were 89.9% and 73.4%, respectively.

Turning to `Cc1cccc(OCCn2c(Cc3ccccc3)nc3ccccc32)c1`, the inhibition at 5 µM against human TRPC6 came to 52.9%; on human TRPC5, 56.4%.

For the compound `CCn1c(NCc2cccc(Br)c2)nc2ccccc21`, the figures for the inhibition at 5 µM against human TRPC6 and on human TRPC5 were 54.1% and 39.9%, respectively.

Regarding `CC(C)n1c(NCc2ccccc2)nc2ccccc21`, the inhibition at 5 µM is 22.4% on human TRPC6 and 48.4% against human TRPC5.

In the case of `COc1ccc(CNc2nc3ccccc3n2Cc2ccc(Cl)cc2)cc1OC`, the inhibition at 5 µM worked out at 31.3% against human TRPC6 and 53.4% on human TRPC5.

For `CC(C)n1c(Nc2ccccc2)nc2ccccc21`, the inhibition at 5 µM was 14.5% at human TRPC6 and 35.7% at human TRPC5.

For `CCCCc1nc2ccccc2n1CC(=O)N1CCCC1c1nc2ccccc2s1` (stereo not drawn), the inhibition at 5 µM is -0.71% against human TRPC6 and 46.3% against human TRPC5.

For the compound `CCn1c(NCc2cc(C)ccc2O)nc2ccccc21`, the inhibition at 5 µM was determined as 3.16% against human TRPC6 and 51.8% on human TRPC5.

`Nc1nc2ccccc2n1Cc1ccccc1F`: the inhibition at 5 µM turned out to be 34.8% on human TRPC6 and 48.4% on human TRPC5.

Consider `Nc1nc2ccccc2n1CCOc1ccccc1Cl`, for which the values for the inhibition at 5 µM against human TRPC6 and against human TRPC5 were 53.7% and 49.9%, respectively.

Consider `COc1ccc(CNc2nc3ccccc3n2C)c(OC)c1`, for which the inhibition at 5 µM against human TRPC6 came to 19.4%; against human TRPC5, 41.3%.

In the case of `Cc1ccccc1OCCn1c(C)nc2ccccc21`, the inhibition at 5 µM is 76.2% against human TRPC6 and 70% on human TRPC5.

Consider `COCCn1c(SCC(=O)Nc2cccc3ncccc23)nc2ccccc21`, for which the inhibition at 5 µM came out at 83.6% at human TRPC6 and 59.1% on human TRPC5.

`c1csc(CNc2nc3ccccc3n2CCN2CCCCC2)c1`: the values for the inhibition at 5 µM against human TRPC6 and against human TRPC5 were 16.5% and 64.4%, respectively.

Take `OCCNc1nc2ccccc2n1CCOc1ccccc1`: the inhibition at 5 µM at human TRPC6 stood at 8.36%; against human TRPC5, 40.7%.

As for `COc1ccc(-n2c(SCC(=O)Nc3cccc(S(=O)(=O)N4CCOCC4)c3)nc3ccccc32)cc1`, the inhibition at 5 µM against human TRPC6 is 6.92%; on human TRPC5 it was 69.6%.

As to `C=C(C)Cn1c(-c2ccc(N(C)C)cc2)nc2ccccc21`, the inhibition at 5 µM on human TRPC6 and against human TRPC5 was 45% in each case.
